# Entries after “also recorded” stand apart in the source; their conditions may differ.
# Tests used:
# HCT-116 cells = experiment: Loop reformation (Hi-C APA) after Rad21 degradation and recovery without transcription, replication or ATP; format: cell-based, human; conditions: Rad21 temporarily degraded and allowed to recover
# Excerpt: Using the degron system, Applicants can directly measure the influence of cellular processes on loop formation (Vian et al, 2018). […] Applicants also tested interchromasomal cohesin-independent links requirement for ATP after cohesin degradation and observed that depletion of ATP strengthens the interactions between superenhancers (FIG. 23).
# CTCF-AID cells = experiment: Rescue experiments in the CTCF-AID cell line (Hi-C); format: cell-based, human; conditions: endogenous CTCF degraded by auxin
# Excerpt: The protein CTCF is thought to act as an oriented brake to halt cohesin-mediated loop extrusion in one direction along the genome but not the other, but how this braking activity is mediated mechanistically is unknown. An important question regarding CTCF barrier activity is whether there is a protein domain mediating the ability to halt extrusion or whether CTCF halts cohesin via steric occlusion. As a proof of principle, Applicants introduced either (i) WT CTCF, (ii) CTCF lacking its N terminal domain, or (iii) CTCF lacking its C terminal domain by transfection into CTCF-AID cells. […] Applicants can systematically identify the key residues in the N terminus of CTCF that are necessary for barrier activity by transfecting plasmids expressing mutant CTCF proteins with tiled mutations on the N terminus and assaying via Hi-C after degradation of endogenous CTCF. Similarly, Applicants can develop HCT-116 degron lines for SA1, SA2, and SA1+SA2 double degron (the cohesin ring co-factors that are thought to mediate the interaction between cohesin and CTCF). By depleting endogenous SA protein, introducing SA proteins with tiled mutations across various domains, and assaying looping via Hi-C, Applicants can similarly identify the residues on the cohesin complex required for interaction with CTCF. […]
Molecule,effect on loop formation during Rad21 recovery (HCT-116 cells),rescue of the looping phenotype (CTCF-AID cells)
CN1CC[C@H](c2c(O)cc(O)c3c(=O)cc(-c4ccccc4Cl)oc23)[C@H](O)C1 [flavopiridol],does not block loop formation; also recorded: loop reformation occurs without issue,–
CC[C@H]1/C=C/C=C/C[C@@H](C)[C@H](O)[C@@](C)(O)C(=O)[C@@H](C)[C@H](O)[C@@H](C)C(=O)[C@@H](C)[C@H](O)[C@@H](C)/C=C/C(=O)O[C@@H]2[C@H](C)[C@H](CC1)O[C@]1(CC[C@H](C)[C@H](C[C@@H](C)O)O1)[C@H]2C [oligomycin],does block loop formation; also recorded: loop formation requires ATP,–
Cc1cn([C@H]2C[C@H](O)[C@@H](CO)O2)c(=O)[nH]c1=O [thymidine],does not block loop formation; also recorded: loop reformation occurs without issue,–
WT CTCF: wild-type CTCF introduced by transfection into CTCF-AID cells (protein) MEGDAVEAIVEESETFIKGKERKTYQRRREGGQEEDACHLPQNQTDGGEVVQDVNSSVQMVMMEQLDPTLLQMKTEVMEGTVAPEAEAAVDDTQIITLQVVNMEEQPINIGELQLVQVPVPVTVPVATTSVEELQGAYENEVSKEGLAESEPMICHTLPLPEGFQVVKVGANGEVETLEQGELPPQEDPSWQKDPDYQPPAKKTKKTKKSKLRYTEEGKDVDVSVYDFEEEQQEGLLSEVNAEKVVGNMKPPKPTKIKKKGVKKTFQCELCSYTCPRRSNLDRHMKSHTDERPHKCHLCGRAFRTVTLLRNHLNTHTGTRPHKCPDCDMAFVTSGELVRHRRYKHTHEKPFKCSMCDYASVEVSKLKRHIRSHTGERPFQCSLCSYASRDTYKLKRHMRTHSGEKPYECYICHARFTQSGTMKMHILQKHTENVAKFHCPHCDTVIARKSDLGVHLRKQHSYIEQGKKCRYCDAVFHERYALIQHQKSHKNEKRFKCDQCDYACRQERHMIMHKRTHTGEKPYACSHCDKTFRQKQLLDMHFKRYHDPNFVPAAFVCSKCGKTFTRRNTMARHADNCAGPDGVEGENGGETKKSKRGRKRKMRSKKEDSSDSENAEPDLDDNEDEEEPAVEIEPEPEPQPVTPAPPPAKKRRGRPPGRTNQPKQNQPTAIIQVEDQNTGAIENIIVEVKKEPDAEPAEGEEEEAQPAATDAPNGDLTPEMILSMMDR,–,rescue the looping phenotype
